# Values quoted from earlier work as cited in US6183121A, “Hepatitis C virus helicase crystals and coordinates that define helicase binding pockets” (priority 1998, dated 2001).
# Molecular target: UvrD helicase, mutation of a conserved arginine in motif IV (Escherichia coli, UniProt P03018, R284A)
# Conditions: mutant versus unmutated UvrD; M. C. Hall et al., J. Biol. Chem., 272 (1997)
# Sequence of UvrD helicase, mutation of a conserved arginine in motif IV (P03018 whole entry R284A): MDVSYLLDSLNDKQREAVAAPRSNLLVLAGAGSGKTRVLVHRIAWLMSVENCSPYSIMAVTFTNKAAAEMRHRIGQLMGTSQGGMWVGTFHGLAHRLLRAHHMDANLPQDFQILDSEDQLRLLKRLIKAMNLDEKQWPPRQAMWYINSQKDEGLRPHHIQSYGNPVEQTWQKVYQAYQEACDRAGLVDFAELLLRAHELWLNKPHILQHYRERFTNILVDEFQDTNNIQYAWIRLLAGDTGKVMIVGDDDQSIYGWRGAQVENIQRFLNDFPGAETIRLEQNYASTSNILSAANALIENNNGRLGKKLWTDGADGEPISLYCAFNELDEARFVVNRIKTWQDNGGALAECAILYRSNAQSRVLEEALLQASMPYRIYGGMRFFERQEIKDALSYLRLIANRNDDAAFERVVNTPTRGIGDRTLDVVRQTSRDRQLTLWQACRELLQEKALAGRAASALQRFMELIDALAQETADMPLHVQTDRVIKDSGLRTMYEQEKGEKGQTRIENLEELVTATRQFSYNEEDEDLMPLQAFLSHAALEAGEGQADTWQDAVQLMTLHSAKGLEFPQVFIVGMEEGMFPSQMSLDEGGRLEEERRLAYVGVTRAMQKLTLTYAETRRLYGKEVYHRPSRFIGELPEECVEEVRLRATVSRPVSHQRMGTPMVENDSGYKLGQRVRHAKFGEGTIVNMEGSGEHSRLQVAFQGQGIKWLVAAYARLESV
structure (smiles),measurement,value
Nc1ncnc2c1ncn2[C@@H]1O[C@H](COP(=O)(O)OP(=O)(O)OP(=O)(O)O)[C@@H](O)[C@H]1O [ATP],increase of the ATP Km,37 fold
